Measured values taken from patent US5827837A, “Polyanion anti-inflammatory agents” (priority 1996, dated 1998).

What was measured:
[1] = target: T1, L-selectin-lg fusion protein (Homo sapiens, UniProt P14151); test: LS 180 colon cancer cell adhesion to immobilized L-selectin-Ig; format: cell-based
T1 construct: Each selectin-lg contains the lectin domain, epidermal growth factor domain, and one (L-selectin-lg), two (P-selectin-lg) or six (E-selectin-lg) complement regulatory repeats; made in house
T1 sequence (P14151 with tags, fused parts or gaps limits assumed): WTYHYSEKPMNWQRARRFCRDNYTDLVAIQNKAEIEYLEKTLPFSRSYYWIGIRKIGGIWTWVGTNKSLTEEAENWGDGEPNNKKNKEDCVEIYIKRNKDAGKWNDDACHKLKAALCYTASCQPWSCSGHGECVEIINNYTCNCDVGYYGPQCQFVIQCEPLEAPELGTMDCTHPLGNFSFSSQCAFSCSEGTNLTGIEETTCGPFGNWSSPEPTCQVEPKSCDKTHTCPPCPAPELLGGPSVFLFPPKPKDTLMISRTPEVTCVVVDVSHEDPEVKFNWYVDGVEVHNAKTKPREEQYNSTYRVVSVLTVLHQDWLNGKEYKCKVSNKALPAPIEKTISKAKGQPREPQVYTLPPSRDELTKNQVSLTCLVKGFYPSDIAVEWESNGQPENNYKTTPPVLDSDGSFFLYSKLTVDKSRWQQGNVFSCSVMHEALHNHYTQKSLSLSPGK
Description: (§1) Cell adhesion assays on immobilized selectin-lg were performed essentially as described (Nelson, R. M., et al., J. Clin. Invest., 91:1157, 1993; Nelson, R. M., et al., Symposia on Quant. Biol., 57:271, 1992). Briefly, Nunclon Terasaki Microwell plates were coated overnight with 5 μl/well of a 5 μg/ml solution of protein A (Chemicon, Temecula, Calif.) in 50 mM carbonate buffer, pH 9.5. Protein-A-coated plates were washed with Dulbecco's phosphate buffered saline (PBS), incubated for 1 hour with L-, P-, or E-selectin-lg fusion proteins in PBS (5-20 μg/ml), washed again, and blocked with PBS containing 1% human serum albumin (HSA). To measure inhibition of cell adhesion, 5 μl/well of lnsP6 in PBS was added to the selectin-lg coated plates and incubated for 30 min at […]. LS 180 cells were harvested by brief trypsinization and resuspended at 1.5×10^6 cells/ml in PBS containing 1% HSA; five μl/well of suspension was added, and incubated for 30 min at 4° C. After washing to remove unbound cells, adherent cells were fixed with glutaraldehyde (2.5% in PBS) and counted. Symbols and error bars represent mean number of adherent cells/mm^2 ±s.e.m., counted in quadruplicate wells in a single experiment representative of three. No LS 180 cell adhesion was detected on plates coated with protein A alone, or on plates coated with protein A-captured CD8-lg fusion protein.
(§2) LS 180 cells (ATCC, Rockville, Md.) were added to cell culture wells containing protein A-captured selectin-lg fusion proteins and incubated for 30 min at 4° C. to allow adhesion. The plates were washed to remove unbound cells and adherent cells were counted microscopically. To determine adhesion blocking activity, InsP6 at the indicated concentrations was added to selectin-lg-coated wells 30 min prior to addition of LS 180 cells.

selectin = test: Selectin-sulfatide interactions; format: binding
[2] = target: T2, P-selectin-lg fusion protein (Homo sapiens, UniProt P16109); test: Competition ELISA: binding of P-selectin-Ig to immobilized BSA-sLe^x; settings: for IC50: read-out: IC50, P-selectin binding
T2 construct: Each selectin-lg contains the lectin domain, epidermal growth factor domain, and one (L-selectin-lg), two (P-selectin-lg) or six (E-selectin-lg) complement regulatory repeats; made in house
T2 sequence (P16109 with tags, fused parts or gaps limits assumed): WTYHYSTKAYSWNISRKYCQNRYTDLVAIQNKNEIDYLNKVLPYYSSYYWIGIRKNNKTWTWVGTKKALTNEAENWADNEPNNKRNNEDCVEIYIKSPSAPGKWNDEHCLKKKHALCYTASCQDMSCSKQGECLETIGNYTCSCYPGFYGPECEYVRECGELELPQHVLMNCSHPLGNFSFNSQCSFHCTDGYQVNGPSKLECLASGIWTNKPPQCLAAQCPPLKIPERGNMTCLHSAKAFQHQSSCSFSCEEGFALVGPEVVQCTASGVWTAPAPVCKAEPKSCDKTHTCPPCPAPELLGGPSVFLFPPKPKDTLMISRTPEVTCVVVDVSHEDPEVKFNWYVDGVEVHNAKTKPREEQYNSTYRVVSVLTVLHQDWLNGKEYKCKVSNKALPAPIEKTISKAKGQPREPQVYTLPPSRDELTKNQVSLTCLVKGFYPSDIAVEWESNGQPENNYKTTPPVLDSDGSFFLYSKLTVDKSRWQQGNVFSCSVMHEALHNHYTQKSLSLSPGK
Text: Selectin-lg fusion proteins are recombinant chimeric molecules containing extracellular regions of selectins coupled to the hinge, CH2, and CH3 regions of human IgG1 (Aruffo, A., et al., Cell, 67:35, 1991; Walz, G., et al., Science, 250:1132, 1990). Each selectin-lg contains the lectin domain, epidermal growth factor domain, and one (L-selectin-lg), two (P-selectin-lg) or six (E-selectin-lg) complement regulatory repeats of the parent molecules. DNAs encoding selectin-Ig inserted in pCDM7 allowed transient expression of recombinant proteins in COS cells as previously described (Seed, B., et al., Proc. Natl. Acad. Sci., U.S.A., 84:3365, 1987; Aruffo, A., Current Protocols In Molecular Biology, eds. Ausubel, F. M., et al, 16:13.1, Greene Publishing Associates and Wiley-lnterscience, New York, N.Y., 1992). These DNAs were also ligated into pNUT (Palmiter, R. D., et al, Cell, 50:435, 1987) for amplification and stable expression in BHK cells. The fusion proteins were affinity purified from culture media using protein A (Pierce Chemical Company, Rockford, Ill.) or protein G (Pharmacia, Piscataway, N.J.) Sepharose, as previously described (Aruffo, A., et al., Cell, 67:35, 1991; Aruffo, A., Current Protocols In Molecular Biology, eds. Ausubel, F. M., et al, supra, 1992). Competition binding ELISAs using P- and E-selectin-lg were performed essentially as described (Nelson, R. M., et al., J. Clin. Invest., 91:1157, 1993), except that the assay buffer was 20 mM HEPES pH 7.4, 150 mM NaCl, 2 mM CaCl2, and 0.25 mM thimerosal, containing 10 mg/ml BSA, protease-free, (Miles Inc., Kankakee, Ill.). Selectin concentrations were from 10 to 30 nM. […] To increase L-selectin binding, an assay similar to that previously described was used (Foxall, C., et al., J. Cell Biol., 117:895, 1992), in which the L-selectin-lg (10-20 nM) was allowed to form aggregates with HRP-conjugated anti-lg antibody for 30 minutes prior to addition of inositols and incubation on the BSA-sLe^x -coated plate. IC50 values were calculated by fitting binding data to the equation: fraction of maximal binding=IC50 […] using nonlinear least squares analysis software (Origin, Microcal Inc, Northampton, Mass.). InsP6 (dodecasodium salt), InsS6 (hexapotassium salt), myo-inositol 1 monophosphate (cyclohexylammonium salt), and myo-inositol were from Sigma Chemical Company (St. Louis, Mo.). Stock solutions were prepared daily in 0.9% NaCl and sterilized by 0.22 μm filtration. InsP6 solutions were adjusted at pH 7.4 with HCl.
L-, P-, or E-selectin-lg fusion proteins were incubated for 2-3 hours on microtiter plates coated with the neoglycoprotein BSA-sLe^x, the plates washed, and bound selectin-lg was detected using a peroxidase-conjugated antibody directed against the lg portion and a chromogenic substrate. To determine blocking activity, solution-phase lnsP6 (.circle-solid.), InsS6 (.largecircle.), or inositol (.box-solid.) at the indicated concentrations were added to the solutions containing selectin-Ig fusion proteins prior to transfer to microtiter plates (competition ELISA).

[3] = target: T2, P-selectin-lg fusion protein; test: LS 180 colon cancer cell adhesion to immobilized P-selectin-Ig; format: cell-based
Description: as §1, §2

SMILES	LS 180 adhesion to L-selectin-Ig [1]	blocking of selectin-sulfatide interactions (selectin)	IC50 ([2]; BSA-sLe^x competition ELISA)	blocking of P-selectin-Ig at reduced Ca^2+ ([2]; Ca^2+ reduced to 0.15 mM)	LS 180 adhesion to P-selectin-Ig [3]	inhibition at 4000 µM ([1]; LS180, 4 mM, single experiment)	inhibition at 4000 µM ([3]; LS180, 4 mM, single experiment)	blocking of P-selectin-Ig binding ([2]; BSA-sLe^x competition ELISA)
O=P(O)(O)O[C@H]1[C@H](OP(=O)(O)O)[C@@H](OP(=O)(O)O)[C@H](OP(=O)(O)O)[C@@H](OP(=O)(O)O)[C@H]1OP(=O)(O)O [InsP6, myo-inositol hexakisphosphate]	blocked the adhesion of LS 180 cells	blocked selectin-sulfatide interactions at concentrations similar to those that were effective in blocking the binding to BSA-sLe^x	160 ± 40 µM	not enhanced	blocked the adhesion of LS 180 cells			
O=S(=O)(O)O[C@H]1[C@H](OS(=O)(=O)O)[C@@H](OS(=O)(=O)O)[C@H](OS(=O)(=O)O)[C@@H](OS(=O)(=O)O)[C@H]1OS(=O)(=O)O [InsS6, myo-inositol hexakissulfate]		blocked selectin-sulfatide interactions at concentrations similar to those that were effective in blocking the binding to BSA-sLe^x	3200 ± 500 µM			~45%	~45%	
O[C@H]1[C@H](O)[C@@H](O)[C@H](O)[C@@H](O)[C@H]1O [myo-inositol, reference compound]	inactive at concentrations up to 5 mM	not inositol) blocked selectin-sulfatide interactions			inactive at concentrations up to 5 mM			not myo-isositol, blocked binding
